Measured values reported in the supplement of paper PMC10307832.

Experiments:
Assay in all cases: relative viability (nuclei count vs DMSO), 5 days (fraction); higher = more cells survive
[1] = compound: C1=CC2=NC=CN=C2C=C1/C=C/3\C(=O)NC(=O)S3 + CC(C)C[C@H](NC(=O)[C@H](Cc1ccccc1)NC(=O)c1cnccn1)B(O)O [Bortezomib] (partner 0.002 µM)
How it was run: (§1)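 Lung cancer cell lines in 1536-well plates got either a single drug or a fixed anchor-drug dose together with five library-drug doses (not always all listed) in √10 steps, by pin tool, on the day after seeding. Nuclei were counted after 5 days, and relative viability is the treated-to-vehicle ratio of nuclei counts. Values are medians of duplicate plates.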

[2] = compound: C1=CC2=NC=CN=C2C=C1/C=C/3\C(=O)NC(=O)S3 + C[C@]1(O)C[C@@H](c2nc(-c3ccc4ccc(-c5ccccc5)nc4c3)c3c(N)nccn32)C1 [Linsitinib] (partner 1 µM)
How it was run: as §1

BGJ398 + Palbociclib = compound: CCN1CCN(c2ccc(Nc3cc(N(C)C(=O)Nc4c(Cl)c(OC)cc(OC)c4Cl)ncn3)cc2)CC1 [BGJ398] + CC(=O)c1c(C)c2cnc(Nc3ccc(N4CCNCC4)cn3)nc2n(C2CCCC2)c1=O [Palbociclib] (partner 0.5 µM)
How it was run: as §1

BGJ398 + Dasatinib = compound: CCN1CCN(c2ccc(Nc3cc(N(C)C(=O)Nc4c(Cl)c(OC)cc(OC)c4Cl)ncn3)cc2)CC1 [BGJ398] + Cc1nc(Nc2ncc(C(=O)Nc3c(C)cccc3Cl)s2)cc(N2CCN(CCO)CC2)n1 [Dasatinib] (partner 0.075 µM)
How it was run: as §1

Row | Cell Line | relative viability ([1]; first compound 0.02 µM) | relative viability ([1]; first compound 0.06325 µM) | relative viability ([1]; first compound 0.2 µM) | relative viability ([1]; first compound 0.6325 µM) | relative viability ([1]; first compound 2 µM) | relative viability ([2]; first compound 0.02 µM) | relative viability ([2]; first compound 0.06325 µM) | relative viability ([2]; first compound 0.2 µM) | relative viability ([2]; first compound 0.6325 µM) | relative viability ([2]; first compound 2 µM) | relative viability (BGJ398 + Palbociclib; first compound 0.01 µM) | relative viability (BGJ398 + Palbociclib; first compound 0.03162 µM) | relative viability (BGJ398 + Palbociclib; first compound 0.1 µM) | relative viability (BGJ398 + Palbociclib; first compound 0.3162 µM) | relative viability (BGJ398 + Palbociclib; first compound 1 µM) | relative viability (BGJ398 + Dasatinib; first compound 0.01 µM) | relative viability (BGJ398 + Dasatinib; first compound 0.03162 µM) | relative viability (BGJ398 + Dasatinib; first compound 0.1 µM) | relative viability (BGJ398 + Dasatinib; first compound 0.3162 µM) | relative viability (BGJ398 + Dasatinib; first compound 1 µM)
1 | A-427 | 0.991 | 1.1 | 1.04 | 0.915 | 0.965 | 1.07 | 1.16 | 1.12 | 1.14 | 1.07 | 0.524 | 0.488 | 0.49 | 0.435 | 0.393 | 0.656 | 0.694 | 0.674 | 0.348 | 0.598
2 | ABC-1 | 0.3 | 0.263 | 0.328 | 0.261 | 0.27 | 0.76 | 0.761 | 0.758 | 1.01 | 0.804 | 0.647 | 0.593 | 0.584 |  | 0.945 | 0.504 | 0.539 | 0.608 | 0.545 | 0.515
3 | BEN | 0.803 | 0.982 | 0.904 | 0.566 | 0.705 | 0.812 | 0.922 | 0.899 | 0.843 | 0.93 | 0.522 | 0.457 | 0.43 | 0.481 | 0.401 | 0.349 | 0.298 | 0.331 | 0.252 | 0.26
4 | CAL-12T | 1.05 | 1.06 | 0.921 | 0.97 | 0.966 | 0.679 | 0.844 | 0.953 | 0.881 | 0.839 | 0.44 | 0.504 | 0.516 | 0.49 | 0.352 | 0.534 | 0.554 | 0.443 | 0.386 | 0.325
5 | COR-L23 | 0.906 | 0.947 | 0.972 | 0.95 | 0.941 | 0.874 | 0.89 | 0.978 | 0.861 | 0.951 | 0.299 | 0.332 | 0.269 | 0.288 | 0.273 | 0.474 | 0.527 | 0.571 | 0.464 | 0.456
6 | COR-L 105 | 0.717 | 0.887 | 0.864 | 0.759 | 0.755 | 0.897 | 0.949 | 0.947 | 0.851 | 1.03 | 0.47 | 0.357 | 0.445 | 0.378 | 0.383 | 0.275 | 0.279 | 0.371 | 0.307 | 0.276
7 | EKVX | 0.906 | 1.07 | 0.969 | 0.911 | 0.871 | 0.772 | 0.845 | 0.983 | 0.981 | 0.945 | 0.436 | 0.291 | 0.384 | 0.359 | 0.394 | 0.528 |  | 0.807 | 0.539 | 0.565
8 | EMC-BAC-2 | 1.01 | 1.2 | 1.02 | 0.997 | 0.895 | 0.765 | 0.906 | 0.822 | 0.808 | 0.869 | 0.497 | 0.558 | 0.547 | 0.568 | 0.516 | 0.273 | 0.337 | 0.355 | 0.36 | 0.314
9 | EPLC-272H | 0.8 | 1.05 | 0.898 | 0.857 | 0.808 | 1.09 | 1.25 | 1.25 | 1.1 | 1.26 | 0.32 | 0.314 | 0.324 | 0.359 | 0.358 | 0.44 | 0.303 | 0.286 | 0.321 | 0.32
10 | H3255 | 0.869 | 0.91 | 0.778 | 0.682 | 0.741 | 0.81 | 0.968 | 0.967 | 0.897 | 0.96 | 0.281 | 0.321 | 0.314 | 0.315 | 0.314 | 0.399 |  | 0.41 | 0.274 | 0.353
11 | HARA | 1.11 | 1.18 | 1.26 | 1.09 | 1.15 | 0.96 | 0.829 | 1.08 | 0.942 | 0.975 | 0.242 | 0.257 | 0.228 | 0.289 | 0.188 | 0.26 | 0.196 | 0.227 | 0.232 | 0.151
12 | HCC-15 | 1.01 | 0.995 | 1.04 | 0.99 | 0.966 | 0.824 | 0.868 | 0.912 | 0.861 | 0.885 | 0.713 | 0.743 | 0.79 | 0.769 | 0.753 | 0.648 | 0.645 | 0.631 | 0.639 | 0.576
13 | HCC-78 | 0.497 | 0.378 | 0.588 | 0.346 | 0.275 | 0.488 | 0.517 | 0.54 | 0.497 | 0.403 | 0.44 | 0.472 | 0.492 | 0.455 | 0.459 | 0.385 | 0.375 | 0.34 | 0.388 | 0.362
